Assay results taken from US12186337B2 (priority 2009, dated 2025).

Details: pH 10

With `O=NO` [sodium nitrite] the “pH of 10% solution at 25° C.” value was 7.9.
